What all share (assay type): biochemical
Assay [1] concerns B-phycoerythrin from Porphyrium cruentum. The experiment in a line: peroxy free radical trapping test (protection of B-phycoerythrin from destruction by peroxy free radicals). As to conditions: B-phycoerythrin 10 nM, 2,2'-azobis-2-methylpropionamidine 500 μM, 37° C.; peptide 20 nM to 20 μM. Here is the method: The ability of peptides to protect the globular protein B-phycoerythrin from destruction by peroxy free radicals was tested. This was done by oxidizing B-phycoerythrin from Porphyrium cruentum (10 nM) in phosphate-buffered saline solution using 2,2′-azobis-2-methylpropionamidine (500 μM) at 37° C. as source of peroxy free radicals. Destruction of the protein was measured by observing the decrease in the protein fluorescence with increasing incubation time (flash fluorimetry, excitation window 340±50 nm, emission window 572±6 nm) . The results of this experiment for the secretory peptides GnRH (human) and for the synthetic peptides WY, WGGGY, WW and YY are shown in FIG. 1A. The meanings in the individual diagrams are • the control and ⋄ a concentration of 20 nM, ∘ 200 nM, ▾ 2 μM and ∇ 20 μM of the particular peptide (quadruplicate determinations) .
The results are shown in FIG. 2. • means the control, ∘ means a concentration of 200 nM, ▾ means a concentration of 2 μM and ∇ means a concentration of 20 μM of the particular peptide (quadruplicate determinations).
Experiments were carried out to test the antioxidant effect of other substances in the peroxy free radical trapping test described in example 1. The results are shown in FIG. 3 (see FIG. 1A for explanation) .

The test system of assay [2] is native rat brain membranes. The experiment in a line: protection of brain membranes from oxidative damage by ascorbate (lipid peroxidation, chemiluminescence). As to conditions: membranes 0.5 mg/ml protein, 50 μM ascorbate, 37° C.; peptide 20 μM and 100 μM. Here is the method:
Secretory peptides are able to protect brain membranes from oxidative damage by ascorbate. This was done by oxidizing native rat brain membranes (0.5 mg/ml protein) by adding 50 μM ascorbate at 37° C. Single-photon measurement of the chemiluminescence (as measure of peroxidation reactions occurring) was measured for quantitative determination of the lipid peroxidation as described by Moosmann and Behl (supra). The results for GnRH (human) are shown in FIG. 1C. • means the control and ⋄ a concentration of 20 μM and ▪ a concentration of 100 μM of the particular peptide (duplicate determinations).

The test system of assay [3] is human LDL. Briefly: protection of LDL from copper-catalyzed oxidation (conjugated dienes, 234 nm). The conditions noted are these: LDL 0.1 mg/ml protein, 10 μM CuSO4, 37° C.; peptide 20 μM and 100 μM. The procedure: In a further test, the ability of the peptides to protect LDL from copper-catalyzed oxidation was tested. This was done by incubating fresh human LDL (0.1 mg/ml protein) with 10 μM CuSO4 at 37° C. The reaction products of the LDL decomposition (conjugated dienes) were measured by photometry at 234 nm as described by Moosmann and Behl (Proc. Natl. Acad. Sci. USA 96 (1999), 8867). The three curves show the control, a concentration of 20 μM and a concentration of 100 μM of the particular peptide (duplicate determinations).

No end group written: not given here.

With “LRPG-amide (LRPG-NH2; listed as Homo sapiens) [GnRH 7-10]”, the “antioxidant effect in trapping peroxy free radicals (decrease in B-phycoerythrin fluorescence)” value in assay [1] was “complete loss of activity”.

On to “SYGLRPG-amide (SYGLRPG-NH2; listed as Homo sapiens) [GnRH 4-10]”, for which, in assay [1], the “antioxidant effect in trapping peroxy free radicals (decrease in B-phycoerythrin fluorescence)” value is given as “markedly reduced”. On the same count and under the same terms, with “WGGY (A synthetic peptide which functions as an antioxidant)” the entry was “Analogous results”. Take WGY: the “antioxidant effect in trapping peroxy free radicals (decrease in B-phycoerythrin fluorescence)” value in assay [1] is recorded as “Analogous results”. In the case of “cyEHWSHDWKPG-amide (N-terminal pyroglutamate, C-terminal amide; listed as Petromyzon marinus) [GnRH (lamprey)]”, the “antioxidant effect in trapping peroxy free radicals (decrease in B-phycoerythrin fluorescence)” value in assay [1] was “Analogous results”. Consider “cyEHWSYGLRPG-amide (N-terminal pyroglutamate, C-terminal amide; listed as Homo Sapiens) [GnRH (human)]”, for which the “antioxidant effect in preventing peroxidation of brain lipids” value in assay [2] is on record as “have antioxidant properties”. In addition, the “antioxidant effect in trapping peroxy free radicals (decrease in B-phycoerythrin fluorescence)” value in assay [1] is “have antioxidant properties”. For the same substance, the “antioxidant effect in preventing LDL oxidation” value in assay [3] was “have antioxidant properties”. Turning to “cyEHWSYGWLPG-amide (HELM PEPTIDE1{[Glp].H.W.S.Y.G.W.L.P.G.[am]}$$$$V2.0; SMILES CC(C)C[C@H](NC(=O)[C@H](Cc1c[nH]c2ccccc12)NC(=O)CNC(=O)[C@H](Cc1ccc(O)cc1)NC(=O)[C@H](CO)NC(=O)[C@H](Cc1c[nH]c2ccccc12)NC(=O)[C@H](Cc1c[nH]cn1)NC(=O)[C@@H]1CCC(=O)N1)C(=O)N1CCC[C@H]1C(=O)NCC(N)=O; listed as Oncorhynchus tshawytscha) [GnRH (salmon)]”, in assay [1], the “antioxidant effect in trapping peroxy free radicals (decrease in B-phycoerythrin fluorescence)” value is “Analogous results”.

The values are drawn from US8232243B2, “Tyrosine- and tryptophan-containing peptides as antioxidants” (Max-Planck-Gesellschaft zur Forderung der Wissenschaften …, priority 1999, dated 2012).
